From PubChem BioAssay (NCI)
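Exposure lasted 48 hours, with cells grown in 96-well plates and compounds tested at five concentrations. TGI denotes the concentration required for complete inhibition of growth.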

How the values were obtained:
Test in all cases: NCI anticancer screen, dose series, 48 h
[1] = tested on: UACC-62 melanoma
[2] = tested on: SF-268 CNS
[3] = tested on: SR leukemia
[4] = tested on: SK-MEL-5 melanoma
[5] = tested on: COLO 205 colon
[6] = tested on: NCI-H522 lung
[7] = tested on: SK-MEL-2 melanoma
[8] = tested on: CAKI-1 renal
[9] = tested on: IGROV1 ovarian
[10] = tested on: PC-3 prostate
[11] = tested on: A549 NSCLC

SMILES	TGI [1] [µM]	TGI [2] [µM]	TGI [3] [µM]	TGI [4] [µM]	TGI [5] [µM]	TGI [6] [µM]	TGI [7] [µM]	TGI [8] [µM]	TGI [9] [µM]	TGI [10] [µM]	TGI [11] [µM]
COc1cc(C2c3cc4c(cc3OC(N3CCOCC3)C2C)OCO4)cc(OC)c1OC (stereo not given)	56.5	> 100	> 100	6.78	> 71.3	9.61	28.2	23.3	47.7	> 100	> 69.2
Cc1cc(NS(=O)(=O)c2ccc(NC(=O)c3cccc4c(NNc5ccc(S(N)(=O)=O)cc5)c5ccccc5nc34)cc2)no1	> 100	> 100	93.2	> 100	> 100	72.8	61	> 100	> 100	> 100	> 100
S=C1NC2=C(COC/C2=C\c2ccccc2Cl)C(c2ccccc2Cl)N1 (stereo not given)	> 100	> 100	20.9	34.6	33.5	> 100	67.1	> 100	> 100	> 100	–
CCOC(=O)c1[nH]n(-c2ccccc2)c(=O)c1C=NC(=S)C(N)=S	> 100	> 100	> 100	40.3	68.5	35.5	> 100	> 100	> 100	> 100	> 100
COc1cc(OC)c(NC2=NCCO2)cc1Cl	> 100	> 100	83.2	47.3	38.2	> 100	36.3	–	> 100	71.8	> 100
Cc1ccc(N2C(=O)C(O)=C(C(=O)C(C)(C)C)C2c2ccc([N+](=O)[O-])cc2)cc1 (stereo not given)	37.2	47.8	24.7	30	32.3	–	58.5	16.5	43.7	> 100	82.5
CC1(C)N=C(/C(C#N)=[N+](/[O-])C(=O)c2ccccc2)C(C)(C)N1O	> 100	> 100	> 100	> 100	> 100	–	> 100	> 100	> 100	> 100	> 100
CNc1nc(=O)c(C#N)c(-c2ccc(C)cc2)s1	> 100	–	> 100	> 100	> 100	> 100	> 100	> 100	> 100	> 100	> 100
O=S(=O)(Nc1nc(-c2cc(O)c(O)c(O)c2)cs1)c1ccc(Cl)cc1Cl	> 100	46.2	–	34.2	50.2	34.5	> 100	35.5	45.9	> 100	> 100
CCCCCCCCCCOC1C(C(C)OCCCN(C)C)OC2OC3(CCCCC3)OC21 (stereo not given)	26.2	30.5	–	29.5	14.6	34	30.4	28	28.1	25.2	30.8
COC(=O)C(Cc1ccccc1)NC(=O)C(CCCN=C(N)N)NC(=O)OCc1ccccc1 (stereo not given)	> 100	> 100	> 100	> 100	> 100	> 100	–	> 100	> 100	> 100	> 100
C[n+]1c(-c2ccc(/C=N/Nc3n[nH]c(=S)n3N/N=C/c3ccc(-c4cn5ccccc5[n+]4C)cc3)cc2)cn2ccccc21	–	> 100	> 100	> 100	> 100	> 100	–	–	> 100	> 100	> 100
CNC(=O)C(NC(=O)[C@H](CC(C)C)NC(=O)[C@@H](S)CCN1C(=O)N(C)C(C)(C)C1=O)C(C)(C)C (stereo not given in full)	> 100	> 100	> 100	> 100	–	> 100	> 100	> 100	> 100	> 100	> 100
CCN(CC)CCNc1ccc2nnn3c4ccc(OC(C)=O)cc4c(=O)c1c23	25.3	18.1	–	11.2	14.6	5.92	30.7	3.31	6.38	17.3	> 40.6
O=C(OCc1c(-c2ccccc2)nn(-c2ccccc2)c1COC(=O)Oc1ccccc1)Oc1ccccc1	> 100	> 100	> 100	> 100	> 100	> 100	–	> 100	> 100	> 100	> 100
CC1(C)C(C(=O)OC(C#N)c2cccc(OCC(=O)OCc3ccccc3)c2)C1(C)C (stereo not given)	> 100	> 100	–	> 100	> 100	> 100	> 100	> 100	> 100	> 100	> 100
CN(C)Cc1cc(C(=O)/C=C/c2c(F)cccc2Cl)cc(CN(C)C)c1O	26.1	23.5	–	29.2	24.8	–	35.5	25.3	19	29.5	32.5
CN1CCN(CCCCNc2cc3c4ccccc4c(NCCCCN4CCN(C)CC4)cc3c3ccccc23)CC1	6.05	8.04	–	2.85	14.3	6.51	16.5	25.6	5.52	21.2	3.21
O=C1O[C@H](COC(=O)c2ccccc2)[C@@H](OC(=O)c2ccccc2)C=C1OC(=O)c1ccccc1	49.6	36.8	46.9	36.2	38.3	37.8	50.8	51.2	57.2	62.7	–
